Reference: ChEMBL document CHEMBL6127057, “Design and synthesis of Thieno[3, 2-b]pyridinone derivatives exhibiting potent activities against Mycobacterium tuberculosis in vivo by targeting Enoyl-ACP reductase” (Eur J Med Chem, 2024)
In brackets after ≈: the same amount, converted by molar mass.

Columns and labels:
Format in all cases: functional
[1] = test system: Mycobacterium tuberculosis; assay: Antimycobacterial activity against compound resistant Mycobacterium tuberculosis 16-6B harboring InhA ATC to AGC (150S)
[2] = test system: Mycobacterium tuberculosis; assay: Antimycobacterial activity against compound resistant Mycobacterium tuberculosis 16-1B harboring InhA TCG to TTG (S186L)
[3] = test system: Mycobacterium tuberculosis; assay: Antimycobacterial activity against compound resistant Mycobacterium tuberculosis 8-8B harboring InhA CTG to GTG (L197V) phenotype
[4] = test system: Mycobacterium tuberculosis; assay: Antimycobacterial activity against compound resistant Mycobacterium tuberculosis 16-4B harboring InhA GCC to GAC (A211D) phenotype
[5] = test system: Mycobacterium tuberculosis; assay: Selectivity ratio of MIC for compound resistant Mycobacterium tuberculosis 16-6B harboring InhA ATC to AGC (150S) phenotype to MIC for wild-type Mycobacterium tuberculosis H37Rv
[6] = test system: Mycobacterium tuberculosis; assay: Selectivity ratio of MIC for compound resistant Mycobacterium tuberculosis 8-8B harboring InhA CTG to GTG (L197V) phenotype to MIC for wild-type Mycobacterium tuberculosis H37Rv
[7] = test system: Mycobacterium tuberculosis; assay: Selectivity ratio of MIC for compound resistant Mycobacterium tuberculosis 16-1B harboring InhA TCG to TTG (S186L) phenotype to MIC for wild-type Mycobacterium tuberculosis H37Rv
[8] = test system: Mycobacterium tuberculosis; assay: Selectivity ratio of MIC for compound resistant Mycobacterium tuberculosis 16-4B harboring InhA GCC to GAC (A211D) phenotype to MIC for wild-type Mycobacterium tuberculosis H37Rv

Compound	MIC [1]	MIC [2]	MIC [3]	MIC [4]	Selectivity ratio [5]	Selectivity ratio [6]	Selectivity ratio [7]	Selectivity ratio [8]
CO[C@H]1/C=C/O[C@@]2(C)Oc3c(C)c(O)c4c(O)c(c(/C=N/N5CCN(C)CC5)c(O)c4c3C2=O)NC(=O)/C(C)=C\C=C\[C@H](C)[C@H](O)[C@@H](C)[C@@H](O)[C@@H](C)[C@H](OC(C)=O)[C@@H]1C [RIFAMPIN]	0.063 µg/mL (≈ 0.0766 µM)	0.063 µg/mL (≈ 0.0766 µM)	0.063 µg/mL (≈ 0.0766 µM)	64 µg/mL (≈ 77.8 µM)	–	–	–	–
Cc1cccc(-c2c(O)c3scc(Br)c3[nH]c2=O)c1	16 µg/mL (≈ 47.6 µM)	16 µg/mL (≈ 47.6 µM)	32 µg/mL (≈ 95.2 µM)	>128 µg/mL	<=16	<=16	<=16	<=16
NNC(=O)c1ccncc1 [ISONIAZID]	0.063 µg/mL (≈ 0.459 µM)	0.063 µg/mL (≈ 0.459 µM)	0.063 µg/mL (≈ 0.459 µM)	0.063 µg/mL (≈ 0.459 µM)	–	–	–	–
